Test results taken from patent publication US20260109712A1, “RIFAMYCINS FOR NONTUBERCULOUS MYCOBACTERIA” (priority 2022, published 2026).
Converted amounts (≈) assume the structure as drawn. Like-named read-outs stand apart in the source and are kept apart here.

Experiments:
M. abscessus Bamboo [1] = test: Broth MBC90 (bMBC90); type: cell-based, Mycobacterium abscessus; conditions: broth, 5 days
Text: Broth MIC, broth MBC90 (bMBC90), and caseum surrogate MBC90 ([…]) of clinically used antibiotics and of novel ADP-ribosylation-resistant rifabutin analogs against M. abscessus Bamboo have been evaluated.

[2] = test system: M. avium subsp. hominisuis MAC109; test: MIC, anti-mycobacterial profiling; type: cell-based, Mycobacterium avium; conditions: for MIC: mean of two experiments
[3] = test system: M. abscessus subsp. bolletii CCUG 50184T; test: MIC, anti-mycobacterial profiling; type: cell-based, Mycobacterium abscessus; conditions: for MIC: mean of two experiments
Experimental: (§1) MIC determination was carried out in 96-well plate format as previously described.^[13-14] 96-well plates were initially set up with 100 μL of 7H9 per well. For each compound, a ten-point two-fold dilution series starting at twice the desired highest concentration was dispensed onto the 96-well plates using a Tecan D300e Digital Dispenser, with the DMSO concentration normalized to 2%. M. abscessus culture grown to mid-log phase (OD600=0.4-0.6) was diluted to OD600=0.1 (1×10^7 CFU/mL). 100 μL of the resulting bacteria suspension was dispensed onto the 96-well plates containing compounds to give a final volume of 200 μL per well with an initial OD600=0.05 (5×10^6 CFU/mL) and final DMSO concentration of 1%. Final compound concentration ranges were typically 50-0.098 μM, 6.25-0.012 μM, 0.006-3.13 μM, or 0.003-1.56 μM. Untreated control wells are included on each plate that contain bacteria suspension and 1% DMSO. Plates were sealed with parafilm, stored in boxes with wet paper towels and incubated at 37° C. with shaking (110 RPM). Plates were incubated for 3 days. To determine growth, OD600 was measured using a Tecan Infinite M200 plate reader on Day 0 and Day 3. Two biological replicates were performed. Clarithromycin was included in each experiment as a positive control.
(§2) For each well on the 96-well plate, bacterial growth was calculated by subtracting the Day 0 OD600 value from the Day 3 OD600 value. For each compound series, the bacterial growth values for the untreated control wells were averaged to give the average drug-free bacterial growth. For compound-containing wells, percentage growth was calculated by dividing their growth values by the average drug-free bacterial growth for the compound series and multiplying by 100. For each compound series, we plotted percentage growth versus compound concentration. By visual inspection of the dose-response curve, we determined the MIC of a compound as the compound concentrations that would result in 90% growth inhibition.
(§3) The MIC data was determined using methods disclosed in Example 1.

[4] = test system: M. abscessus subsp. massiliense CCUG 48898T; test: MIC, anti-mycobacterial profiling; type: cell-based, Mycobacterium abscessus; conditions: for MIC: mean of two experiments
Experimental: as §1, §2, §3

[5] = test system: M. intracellulare ATCC 13950; test: MIC, anti-mycobacterial profiling; type: cell-based, Mycobacterium intracellulare; conditions: for MIC: mean of two experiments
M. kansasii ATCC 12478 = test: MIC, anti-mycobacterial profiling; type: cell-based, Mycobacterium kansasii; conditions: for MIC: mean of two experiments
Δarr M. abscessus = test: MIC assay, isogenic arr-deleted strain; type: cell-based, Mycobacterium abscessus; conditions: arr-deleted strain; 90% growth inhibition
In short: (§4)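 Two-fold, ten-point dilutions in 7H9 with 2% DMSO; mid-log culture diluted to OD600=0.1 (1×10^7 CFU/mL). Incubated 3 days at 37 °C, shaking 110 RPM; growth = Day 3 minus Day 0 OD600, expressed as percentage of drug-free growth and plotted against concentration. Two biological replicates.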

M. chelonae ATCC 35752 = test: MIC, anti-mycobacterial profiling; type: cell-based, Mycobacterium chelonae; conditions: for MIC: mean of two experiments
M. abscessus ATCC 19977 = test: MIC assay in 96-well plate format, wild-type strain; type: cell-based, Mycobacterium abscessus; conditions: for MIC ratio: WT MIC/Δarr strain MIC
In short: as §4

M. szulgai ATCC 35799 = test: MIC, anti-mycobacterial profiling; type: cell-based, Mycobacterium szulgai; conditions: for MIC: mean of two experiments
M. xenopi ATCC 19250 = test: MIC, anti-mycobacterial profiling; type: cell-based, Mycobacterium xenopi; conditions: for MIC: mean of two experiments
RFB-R1 M. abscessus = test: microbe, parasite or virus in culture; type: cell-based, Mycobacterium abscessus; conditions: for MIC: Mycobacteroides abscessus, read-out: RFB-R1 M. abscessus MIC
M. simiae ATCC 25275 = test: MIC, anti-mycobacterial profiling; type: cell-based, Mycobacterium simiae; conditions: for MIC: mean of two experiments
M. fortuitum ATCC 6841 = test: MIC, anti-mycobacterial profiling; type: cell-based, Mycobacterium fortuitum; conditions: for MIC: mean of two experiments
M. abscessus Bamboo [6] = test: MIC assay, clinical isolate Bamboo; type: cell-based, Mycobacterium abscessus; conditions: for MIC: broth, M. abscessus Bamboo, Table 16, read-out: MIC
M. chimaera CCUG 50989T = test: MIC, anti-mycobacterial profiling; type: cell-based, Mycobacterium chimaera; conditions: for MIC: mean of two experiments
[7] = 90% inhibition of bacterial growth
[8] = Mycobacteroides abscessus, 120 h
[9] = Mycobacterium intracellulare, ATCC13950
[10] = Mycobacterium kansasii, ATCC12478
[11] = Mycobacteroides chelonae, ATCC35752
[12] = Mycobacteroides abscessus, ATCC19977, M. abscessus ATCC 19977, 90% growth inhibition, read-out: WT Mab MIC
[13] = Mycobacteroides abscessus, ATCC19977, M. abscessus subsp. abscessus ATCC 19977, mean of two experiments, read-out: MIC
[14] = Mycobacterium szulgai, ATCC35799
[15] = Mycobacterium xenopi, ATCC19250
[16] = Mycobacterium simiae, ATCC25275
[17] = Mycolicibacterium fortuitum, ATCC6841

CO[C@H]1/C=C/O[C@@]2(C)Oc3c(C)c(O)c4c(c3C2=O)C2=NC3(CCN(CC(C)C)CC3)NC2=C(NC(=O)/C(C)=C/C=C/[C@H](C)[C@H](O)[C@@H](C)[C@@H](O)[C@@H](C)[C@H](OC(=O)c2cccnc2)[C@@H]1C)C4=O [5m, 25-O-(3-pyridinecarbonyl)-25-O-desacetyrifabutin]
MBC (M. abscessus Bamboo [1]): 0.16 µM (≈ 0.146 µg/mL) | Fold improvement (RFB-5m vs RFB) [2]: 0.8 | MIC [2]: 0.04 µM (≈ 0.0364 µg/mL) | Fold improvement (RFB-5m vs RFB) [3]: 31 | MIC [3]: 0.07 µM (≈ 0.0637 µg/mL) | Fold improvement (RFB-5m vs RFB) [4]: 12 | MIC [4]: 0.05 µM (≈ 0.0455 µg/mL) | Fold improvement (RFB-5m vs RFB) [5]: 0.8 | MIC [5]: 0.06 µM (≈ 0.0546 µg/mL) | Fold improvement (RFB-5m vs RFB) (M. kansasii ATCC 12478): 1.0 | MIC (M. kansasii ATCC 12478): 0.008 µM (≈ 0.00728 µg/mL) | Δarr Mab MIC (Δarr M. abscessus): 0.026 µM | Fold improvement (RFB-5m vs RFB) (M. chelonae ATCC 35752): 30 | MIC (M. chelonae ATCC 35752): 0.02 µM (≈ 0.0182 µg/mL) | Mab 19977 MIC (M. abscessus ATCC 19977; [7]): 0.025 µM | MIC (M. abscessus ATCC 19977; M. abscessus ATCC 19977, 90% growth inhibition, read-out: WT Mab MIC): 0.024 µM (≈ 0.0218 µg/mL) | Fold improvement (RFB-5m vs RFB) (M. abscessus ATCC 19977; M. abscessus subsp. abscessus ATCC 19977): 55 | MIC (M. abscessus ATCC 19977; M. abscessus subsp. abscessus ATCC 19977, mean of two experiments, read-out: MIC): 0.02 µM (≈ 0.0182 µg/mL) | MIC (M. abscessus ATCC 19977; PK tables 2 and 8, read-out: WT MIC): 0.024 µM (≈ 0.0218 µg/mL) | MIC ratio (M. abscessus ATCC 19977): 0.9 | Fold improvement (RFB-5m vs RFB) (M. szulgai ATCC 35799): 1.7 | MIC (M. szulgai ATCC 35799): 0.006 µM (≈ 0.00546 µg/mL) | Fold improvement (RFB-5m vs RFB) (M. xenopi ATCC 19250): 4.0 | MIC (M. xenopi ATCC 19250): 0.005 µM (≈ 0.00455 µg/mL) | RFB-R1 M. abscessus MIC (RFB-R1 M. abscessus; rpoB H447Y mutant, 90% inhibition): >100 µM | Fold improvement (RFB-5m vs RFB) (M. simiae ATCC 25275): 95 | MIC (M. simiae ATCC 25275): 0.2 µM (≈ 0.182 µg/mL) | Fold improvement (RFB-5m vs RFB) (M. fortuitum ATCC 6841): 60 | MIC (M. fortuitum ATCC 6841): 0.02 µM (≈ 0.0182 µg/mL) | Mab Bamboo MIC (M. abscessus Bamboo [6]; [7]): 0.023 µM | MIC (M. abscessus Bamboo [6]): 0.02 µM (≈ 0.0182 µg/mL) | Fold improvement (RFB-5m vs RFB) (M. chimaera CCUG 50989T): 0.8 | MIC (M. chimaera CCUG 50989T): 0.06 µM (≈ 0.0546 µg/mL)

CC[C@H]1OC(=O)[C@H](C)[C@@H](O[C@H]2C[C@@](C)(OC)[C@@H](O)[C@H](C)O2)[C@H](C)[C@@H](O[C@@H]2O[C@H](C)C[C@H](N(C)C)[C@H]2O)[C@](C)(OC)C[C@@H](C)C(=O)[C@H](C)[C@@H](O)[C@]1(C)O [clarithromycin, reference compound]
MBC (M. abscessus Bamboo [1]; [8]): 2 µM (≈ 1.5 µg/mL) | MIC ([2]; Mycobacterium avium): 0.5 µM (≈ 0.374 µg/mL) | MIC ([3]; Mycobacteroides abscessus): 4.3 µM (≈ 3.22 µg/mL) | MIC ([4]; Mycobacteroides abscessus): 1.1 µM (≈ 0.823 µg/mL) | MIC [5, 9]: 0.4 µM (≈ 0.299 µg/mL) | MIC (M. kansasii ATCC 12478; [10]): 0.3 µM (≈ 0.224 µg/mL) | Δarr Mab MIC (Δarr M. abscessus): 1.8 µM | MIC (M. chelonae ATCC 35752; [11]): 0.1 µM (≈ 0.0748 µg/mL) | MIC (M. abscessus ATCC 19977; [12]): 1.45 µM (≈ 1.08 µg/mL) | MIC (M. abscessus ATCC 19977; [13]): 1.5 µM (≈ 1.12 µg/mL) | MIC ratio (M. abscessus ATCC 19977): 0.7 | MIC (M. szulgai ATCC 35799; [14]): 0.3 µM (≈ 0.224 µg/mL) | MIC (M. xenopi ATCC 19250; [15]): 0.06 µM (≈ 0.0449 µg/mL) | MIC (RFB-R1 M. abscessus): 2.1 µM (≈ 1.57 µg/mL) | MIC (M. simiae ATCC 25275; [16]): 12 µM (≈ 8.98 µg/mL) | MIC (M. fortuitum ATCC 6841; [17]): 3.2 µM (≈ 2.39 µg/mL) | MIC (M. abscessus Bamboo [6]; Mycobacteroides abscessus): 0.4 µM (≈ 0.299 µg/mL) | MIC (M. chimaera CCUG 50989T; CCUG50989T): 0.8 µM (≈ 0.598 µg/mL)

CO[C@H]1/C=C/O[C@@]2(C)Oc3c(C)c(O)c4c(c3C2=O)C2=NC3(CCN(CC(C)C)CC3)NC2=C(NC(=O)/C(C)=C\C=C\[C@H](C)[C@H](O)[C@@H](C)[C@@H](O)[C@@H](C)[C@H](OC(C)=O)[C@@H]1C)C4=O [rifabutin, reference compound]
MBC (M. abscessus Bamboo [1]; [8]): 5 µM (≈ 4.24 µg/mL) | MIC ([2]; Mycobacterium avium): 0.03 µM (≈ 0.0254 µg/mL) | MIC ([3]; Mycobacteroides abscessus): 2.2 µM (≈ 1.86 µg/mL) | MIC ([4]; Mycobacteroides abscessus): 0.6 µM (≈ 0.508 µg/mL) | MIC [5, 9]: 0.05 µM (≈ 0.0424 µg/mL) | MIC (M. kansasii ATCC 12478; [10]): 0.008 µM (≈ 0.00678 µg/mL) | Δarr Mab MIC (Δarr M. abscessus): 0.031 µM | MIC (M. chelonae ATCC 35752; [11]): 0.6 µM (≈ 0.508 µg/mL) | MIC (M. abscessus ATCC 19977; [12]): 1.15 µM (≈ 0.974 µg/mL) | MIC (M. abscessus ATCC 19977; [13]): 1.1 µM (≈ 0.932 µg/mL) | MIC (M. abscessus ATCC 19977; Mycobacteroides abscessus, ATCC19977, PK tables 2 and 8, read-out: WT MIC): 1.15 µM (≈ 0.974 µg/mL) | MIC ratio (M. abscessus ATCC 19977): 39.3 | MIC (M. szulgai ATCC 35799; [14]): 0.01 µM (≈ 0.00847 µg/mL) | MIC (M. xenopi ATCC 19250; [15]): 0.02 µM (≈ 0.0169 µg/mL) | MIC (RFB-R1 M. abscessus): > 100 µM | MIC (M. simiae ATCC 25275; [16]): 19 µM (≈ 16.1 µg/mL) | MIC (M. fortuitum ATCC 6841; [17]): 1.2 µM (≈ 1.02 µg/mL) | MIC (M. abscessus Bamboo [6]; Mycobacteroides abscessus): 3 µM (≈ 2.54 µg/mL) | MIC (M. chimaera CCUG 50989T; CCUG50989T): 0.05 µM (≈ 0.0424 µg/mL)
